Test results reported in patent US20250236609A1, “VPS34 INHIBITORS AND METHODS OF USE THEREOF” (Deciphera Pharmaceuticals, LLC, priority 2023, published 2025).

Molecular target: VPS34 (Homo sapiens (Human), UniProt Q8NEB9)
Assay: Biochemical Assay for VPS34 (ADP-Glo kinase activity assay)
Details: 25 nM VPS34, 1 mM ATP, 1-hour incubation at 37° C.; read-out: VPS34 (Inhibition of biochemical activity of VPS34, IC50)
Method: Activity of VPS34 kinase was determined using an ADP-Glo kinase activity assay (Promega Corp). Assays were conducted in 384-well plates (5 μL assay volume) using 25 nM VPS34 (ThermoFisher Scientific), […] PI:3PS Lipid Kinase Substrate (Promega Corp.), and 1 mM ATP in kinase buffer. Inhibition of VPS34 was measured by adding serial diluted test compound (final assay concentration of 0.1% DMSO) followed by a 1-hour incubation at 37° C. ADP-Glo reagent was then added ([…]) followed by a 40 min incubation at rt. Kinase detection reagent was then added ([…]) and followed by a 60 min incubation at rt. Luminescence was then detected. The RLU at each compound concentration of was converted to percent inhibition using controls (i.e., reaction with no test compound and reaction with a known inhibitor) and IC50 values were calculated by fitting a four-parameter sigmoidal curve to the data using GeneData Screener software.
VPS34 Protein Sequence (Full Length with GST Tag)

VPS34, sequence (Q8NEB9 other isoform, or with tags, fused parts or gaps): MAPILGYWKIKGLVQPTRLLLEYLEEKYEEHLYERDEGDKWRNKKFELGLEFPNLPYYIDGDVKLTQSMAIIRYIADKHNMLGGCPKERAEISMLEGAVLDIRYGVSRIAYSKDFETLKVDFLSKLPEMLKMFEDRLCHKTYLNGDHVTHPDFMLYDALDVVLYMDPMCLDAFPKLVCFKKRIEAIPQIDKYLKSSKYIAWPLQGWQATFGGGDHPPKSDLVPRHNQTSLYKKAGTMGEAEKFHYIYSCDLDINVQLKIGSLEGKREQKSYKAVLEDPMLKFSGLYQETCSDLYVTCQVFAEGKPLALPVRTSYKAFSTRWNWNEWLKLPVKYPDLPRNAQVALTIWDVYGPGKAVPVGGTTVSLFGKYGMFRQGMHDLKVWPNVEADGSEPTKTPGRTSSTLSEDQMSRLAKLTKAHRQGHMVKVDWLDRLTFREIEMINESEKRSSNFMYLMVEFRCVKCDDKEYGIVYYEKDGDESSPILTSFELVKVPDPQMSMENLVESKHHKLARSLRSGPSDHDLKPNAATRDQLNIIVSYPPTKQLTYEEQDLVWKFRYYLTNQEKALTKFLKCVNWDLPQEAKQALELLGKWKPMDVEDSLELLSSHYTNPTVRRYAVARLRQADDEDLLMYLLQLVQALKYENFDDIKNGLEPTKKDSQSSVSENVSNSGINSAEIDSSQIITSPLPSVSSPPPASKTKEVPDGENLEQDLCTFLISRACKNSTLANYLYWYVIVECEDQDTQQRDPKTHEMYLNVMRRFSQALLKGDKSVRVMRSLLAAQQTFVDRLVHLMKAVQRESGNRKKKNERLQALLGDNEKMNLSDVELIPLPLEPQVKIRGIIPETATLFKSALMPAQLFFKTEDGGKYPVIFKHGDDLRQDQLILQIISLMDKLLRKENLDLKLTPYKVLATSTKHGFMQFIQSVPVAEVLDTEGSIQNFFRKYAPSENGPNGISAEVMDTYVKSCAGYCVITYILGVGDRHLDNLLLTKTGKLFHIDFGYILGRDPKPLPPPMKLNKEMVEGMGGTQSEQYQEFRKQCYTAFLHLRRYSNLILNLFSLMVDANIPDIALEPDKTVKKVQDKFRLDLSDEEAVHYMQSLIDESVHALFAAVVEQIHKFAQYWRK

Row | Compound | IC50 [µM]
1 | Cc1cnccc1-c1cc(N2CCCC[C@@H]2C(F)(F)F)[nH]c(=O)c1 [Example 13] | 1 to 10
2 | COC(=O)Nc1cc(-c2cc(N3CCN(S(=O)(=O)CCN(C)C)C[C@@H]3C(F)(F)F)[nH]c(=O)c2)c(C)cn1 [Example 32] | 0.1 to 0.5
3 | Cc1cnc(NC(=O)[C@H]2CCN(C)C2)cc1-c1cc(N2CCCC[C@@H]2C(F)(F)F)[nH]c(=O)c1 [Example 57] | 1 to 10
4 | Cc1cnnc(Nc2cc(-c3cc(N4CCCC[C@@H]4C(F)(F)F)[nH]c(=O)c3)c(C)cn2)c1 [Example 40] | 0.5 to 1
5 | COC(=O)Nc1cc(-c2cc(-c3cccnc3C(F)(F)F)[nH]c(=O)c2)c(C2CC2)cn1 [Example 11] | 1 to 10
6 | CC(=O)Nc1cc(-c2cc(-c3cccnc3C(F)(F)F)[nH]c(=O)c2)c(C)cn1 [Example 9] | 0.1 to 0.5
7 | Cc1cnc(Nc2cnn(C)c2)cc1-c1cc(-c2cccnc2C(F)(F)F)[nH]c(=O)c1 [Example 33] | 0.5 to 1
8 | CNCCC(=O)N1CCN(c2cc(-c3cc(NC(=O)OC)ncc3C)cc(=O)[nH]2)[C@@H](C(F)(F)F)C1 [Example 58] | 1 to 10
9 | Cc1cnc(Nc2ncn(C)n2)cc1-c1cc(N2CCCC[C@@H]2C(F)(F)F)[nH]c(=O)c1 [Example 42] | ≤ 0.1
10 | COC(=O)Nc1cc(-c2cc(N3CCOC[C@H]3C(F)(F)F)[nH]c(=O)c2)c(C)cn1 [Example 36] | 1 to 10
11 | Cc1cnc(Nc2cn(C)nn2)cc1-c1cc(N2CCCC[C@@H]2C(F)(F)F)[nH]c(=O)c1 [Example 39] | 0.5 to 1
12 | COC(=O)Nc1cc(-c2cc(-c3cccnc3C(F)(F)F)[nH]c(=O)c2)c(CF)cn1 [Example 50] | 1 to 10
13 | Cc1cnc(NC(=O)NC2CC2)cc1-c1cc(N2CCCC[C@@H]2C(F)(F)F)[nH]c(=O)c1 [Example 59] | 1 to 10
14 | CNC(=O)Nc1cc(-c2cc(-c3cccnc3C(F)(F)F)[nH]c(=O)c2)c(C)cn1 [Example 52] | 1 to 10
15 | Cc1cnc(NC(=O)c2cn[nH]c2)cc1-c1cc(N2CCCC[C@@H]2C(F)(F)F)[nH]c(=O)c1 [Example 47] | 0.5 to 1
16 | Cc1cnc(NC(=O)C2CC2)cc1-c1cc(-c2cnccc2C(F)(F)F)[nH]c(=O)c1 [Example 48] | 0.1 to 0.5
17 | Cc1cnc(Nc2nnn(C)n2)cc1-c1cc(N2CCCC[C@@H]2C(F)(F)F)[nH]c(=O)c1 [Example 43] | 0.1 to 0.5

Row | Compound | IC50 [µM]
18 | Cc1cnc(NC(=O)CN(C)C)cc1-c1cc(N2CCCC[C@@H]2C(F)(F)F)[nH]c(=O)c1 [Example 19] | 1 to 10
19 | COC(=O)Nc1cc(-c2cc(N3CCOC[C@@H]3C(F)(F)F)[nH]c(=O)c2)c(C)cn1 [Example 37] | ≤ 0.1
20 | Cc1cnc(Nc2cnn(C)n2)cc1-c1cc(N2CCCC[C@@H]2C(F)(F)F)[nH]c(=O)c1 [Example 41] | 0.1 to 0.5
21 | Cc1cnc(NC(=O)OC2CC2)cc1-c1cc(N2CCCC[C@@H]2C(F)(F)F)[nH]c(=O)c1 [Example 30] | 0.1 to 0.5
22 | COC(=O)Nc1cc(-c2cc(-c3cccnc3C(F)(F)F)[nH]c(=O)c2)c(Cl)cn1 [Example 51] | 1 to 10
23 | Cc1cnc(NC(=O)c2cnn(C)c2)cc1-c1cc(N2CCCC[C@@H]2C(F)(F)F)[nH]c(=O)c1 [Example 31] | 0.5 to 1
24 | Cc1cnc(N)cc1-c1cc(-c2cccnc2C(F)(F)F)[nH]c(=O)c1 [Example 55] | 1 to 10
25 | CNc1cc(-c2cc(N3CCCC[C@@H]3C(F)(F)F)[nH]c(=O)c2)c(C)cn1 [Example 53] | 1 to 10
26 | COC(=O)Nc1cc(-c2cc(N3CCN(S(=O)(=O)CCN(C)C)C[C@@H]3C)[nH]c(=O)c2)c(C)cn1 [Example 34] | ≤ 0.1
27 | Cc1cnc(NC(=O)CC2CN(C)C2)cc1-c1cc(N2CCCC[C@@H]2C(F)(F)F)[nH]c(=O)c1 [Example 3, (R)-N-(5-methyl-2′-oxo-6′-(2-(trifluoromethyl)piperidin-1-yl)-1′,2′-dihydro-[4,4′-bipyridin]-2-yl)-2-(1-methylazetidin-3-yl)acetamide] | 0.1 to 0.5
28 | COC(=O)Nc1ncc(C)c(-c2cc(N3CCCC[C@@H]3C(F)(F)F)[nH]c(=O)c2)n1 [Example 8] | 0.1 to 0.5
29 | Cc1cnc(N)cc1-c1cc(N2CCCC[C@@H]2C(F)(F)F)[nH]c(=O)c1 [Example 23] | 1 to 10
30 | Cc1cnc(NC(=O)CC2CN(C)CC2(F)F)cc1-c1cc(N2CCCC[C@@H]2C(F)(F)F)[nH]c(=O)c1 (stereo partly shown) [Example 21] | 0.5 to 1
31 | CNCCC(=O)Nc1cc(-c2cc(N3CCCC[C@@H]3C(F)(F)F)[nH]c(=O)c2)c(C)cn1 [Example 35] | 0.5 to 1
32 | Cc1cncc(Nc2cc(-c3cc(N4CCCC[C@@H]4C(F)(F)F)[nH]c(=O)c3)c(C)cn2)n1 [Example 2, (R)-5′-methyl-2′-((6-methylpyrazin-2-yl)amino)-6-(2-(trifluoromethyl)piperidin-1-yl)-[4,4′-bipyridin]-2(1H)-one] | ≤ 0.1
33 | Cc1cnc(NC2COC2)cc1-c1cc(N2CCCC[C@@H]2C(F)(F)F)[nH]c(=O)c1 [Example 56] | 1 to 10

The remaining lines, values ahead:

Row | IC50 [µM] | Compound
34 | 0.1 to 0.5 | CNCCS(=O)(=O)Nc1ccc(-c2cc(-c3cc(NC(=O)C4CC4)ncc3C)cc(=O)[nH]2)c(C)c1 [Example 66]
35 | 1 to 10 | Cc1cnc(NC(=O)C2CC2)cc1-c1cc(N2CCN(C(=O)c3ccc(F)cc3)C[C@@H]2C)[nH]c(=O)c1 [Example 88]
36 | 1 to 10 | COC(=O)Nc1cc(-c2cc(N3CCN(C(=O)CCN(C)C)C[C@@H]3C)[nH]c(=O)c2)c(C)cn1 [Example 63]
37 | 0.5 to 1 | Cc1cnc(NC(=O)C2CC2)cc1-c1cc(N2CCN(C(=O)c3cnn(C)c3)C[C@@H]2C)[nH]c(=O)c1 [Example 89]
38 | ≤ 0.1 | Cc1cnc(NC(=O)C2CC2)cc1-c1cc(N2CCN(S(=O)(=O)c3cnn(C)c3)C[C@@H]2C)[nH]c(=O)c1 [Example 84]
39 | 1 to 10 | COC[C@H]1CCCN1c1cc(-c2cc(NC(=O)OC)ncc2C)cc(=O)[nH]1 [Example 67]
40 | 0.1 to 0.5 | CCS(=O)(=O)N1CCN(c2cc(-c3cc(NC(=O)C4CC4)ncc3C)cc(=O)[nH]2)[C@@H](C)C1 [Example 76]
41 | 1 to 10 | Cc1nc(Nc2cc(-c3cc(N4CCCC[C@@H]4C(F)(F)F)[nH]c(=O)c3)c(C)cn2)no1 [Example 80]
42 | 1 to 10 | COc1ccc(C(=O)N2CCN(c3cc(-c4cc(NC(=O)C5CC5)ncc4C)cc(=O)[nH]3)[C@@H](C)C2)cc1 [Example 92]
43 | 1 to 10 | COC(=O)Nc1cc(-c2cc(-c3cccnc3C3CC3)[nH]c(=O)c2)c(C)cn1 [Example 70]
44 | 1 to 10 | Cc1cnc(NC(=O)c2cnn(C3CNC3)c2)cc1-c1cc(N2CCCC[C@@H]2C(F)(F)F)[nH]c(=O)c1 [Example 74]
45 | 1 to 10 | COC(=O)Nc1cc(-c2cc(N3CCN(C(=O)CCN(C)C)C[C@@H]3C(F)(F)F)[nH]c(=O)c2)c(C)cn1 [Example 61]
46 | 1 to 10 | Cc1cnc(NC(=O)C2COC2)cc1-c1cc(N2CCCC[C@@H]2C(F)(F)F)[nH]c(=O)c1 [Example 62]
47 | 1 to 10 | CNCCC(=O)Nc1cc(-c2cc(-c3cccnc3C(F)(F)F)[nH]c(=O)c2)c(C)cn1 [Example 73]
48 | 0.1 to 0.5 | Cc1nccc(Nc2cc(-c3cc(NS(=O)(=O)c4ccc(F)cc4F)[nH]c(=O)c3)c(C)cn2)n1 [Example 96, 2,4-difluoro-N-(5′-methyl-2′-((2-methylpyrimidin-4-yl)amino)-6-oxo-1,6-dihydro-[4,4′-bipyridin]-2-yl)benzenesulfonamide]
49 | ≤ 0.1 | Cc1cnc(NC(=O)C2CC2)cc1-c1cc(N2CCN(S(=O)(=O)CC3CC3)C[C@@H]2C)[nH]c(=O)c1 [Example 85]

Row | IC50 [µM] | Compound
50 | 0.1 to 0.5 | Cc1cnc(NC(=O)C2CC2)cc1-c1cc(NS(=O)(=O)c2ccc(F)cc2F)[nH]c(=O)c1 [compound 97]
51 | ≤ 0.1 | Cc1ccnc(Nc2cc(-c3cc(N4CCCC[C@@H]4C(F)(F)F)[nH]c(=O)c3)c(C)cn2)n1 [Example 72]
52 | 0.1 to 0.5 | COc1ccc(S(=O)(=O)N2CCN(c3cc(-c4cc(NC(=O)C5CC5)ncc4C)cc(=O)[nH]3)[C@@H](C)C2)cc1 [Example 87]
53 | 1 to 10 | Cc1cnc(NC(=O)c2cnn(C)c2)cc1-c1cc(-c2cccnc2C(F)(F)F)[nH]c(=O)c1 [Example 68]
54 | 1 to 10 | Cc1cnc(NC(=O)C2CC2)cc1-c1cc(N2CCN(C(=O)CC3CC3)C[C@@H]2C)[nH]c(=O)c1 [Example 93]
55 | 0.1 to 0.5 | Cc1cnc(NC(=O)C2CC2)cc1-c1cc(N2CCN(S(=O)(=O)c3cc(F)ccc3F)C[C@@H]2C)[nH]c(=O)c1 [Example 86]
56 | 0.1 to 0.5 | COC(=O)Nc1cc(-c2cc(-c3ccncc3C(F)(F)F)[nH]c(=O)c2)c(C)cn1 [Example 79]
57 | 1 to 10 | CNCC(=O)Nc1cc(-c2cc(-c3cccnc3C(F)(F)F)[nH]c(=O)c2)c(C)cn1 [Example 64]
58 | 1 to 10 | COCCC(=O)N1CCN(c2cc(-c3cc(NC(=O)C4CC4)ncc3C)cc(=O)[nH]2)[C@@H](C)C1 [Example 95]
59 | 1 to 10 | CNCCC(=O)N1CCN(c2cc(-c3cc(NC(=O)OC)ncc3C)cc(=O)[nH]2)[C@@H](C)C1 [Example 60]
60 | ≤ 0.1 | Cc1cnc(NC(=O)C2CC2)cc1-c1cc(N2CCN(S(=O)(=O)C3CC3)C[C@@H]2C)[nH]c(=O)c1 [Example 82]
61 | 1 to 10 | Cc1cnc(Nc2ccn(C)n2)cc1-c1cc(N2CCCC[C@@H]2C(F)(F)F)[nH]c(=O)c1 [Example 71]
62 | 1 to 10 | Cc1cnc(Nc2cnn(CCN(C)C)c2)cc1-c1cc(N2CCCC[C@@H]2C(F)(F)F)[nH]c(=O)c1 [Example 69]
63 | 1 to 10 | Cc1cnc(NC(=O)[C@@H]2CCN(C)C2)cc1-c1cc(N2CCCC[C@@H]2C(F)(F)F)[nH]c(=O)c1 [Example 65]
64 | 0.1 to 0.5 | COCCS(=O)(=O)N1CCN(c2cc(-c3cc(NC(=O)C4CC4)ncc3C)cc(=O)[nH]2)[C@@H](C)C1 [Example 83]
